Inconclusive results and toxic doses are left out.
Test system: P1534 leukemia ip, CD2F1 mice, survival T/C
Assay: NCI In Vivo Anticancer Drug Screen. Data for tumor model P1534 Leukemia (intraperitoneal) in CD2F1 (CDF1) mice
Conditions: higher = longer survival
Description: The antitumor activity of compounds was measured in mice bearing transplantable tumors. Survival or tumor size were measured and the results are expressed as the measurement made in the treated group (T) divided by the measurement made in the vehicle treated control group (C). The tumor model used in this assay is P1534 Leukemia (intraperitoneal) in CD2F1 (CDF1) mice

[1] = endpoint: mean survival time, dose: 7.5 mg/kg/injection, schedule: Q01DX010 (ip), vehicle: saline
[2] = endpoint: mean survival time, dose: 15.0 mg/kg/injection, schedule: Q01DX010 (ip), vehicle: saline
[3] = endpoint: mean survival time, dose: 30.0 mg/kg/injection, schedule: Q01DX010 (ip), vehicle: saline
[4] = endpoint: mean survival time, dose: 60.0 mg/kg/injection, schedule: Q01DX010 (ip), vehicle: saline
[5] = endpoint: mean survival time, dose: 5.0 mg/kg/injection, schedule: Q01DX010 (ip), vehicle: saline
[6] = endpoint: mean survival time, dose: 10.0 mg/kg/injection, schedule: Q01DX010 (ip), vehicle: saline
[7] = endpoint: mean survival time, dose: 20.0 mg/kg/injection, schedule: Q01DX010 (ip), vehicle: saline
[8] = endpoint: mean survival time, dose: 12.5 mg/kg/injection, schedule: Q01DX010 (ip), vehicle: saline
[9] = endpoint: mean survival time, dose: 25.0 mg/kg/injection, schedule: Q01DX010 (ip), vehicle: saline
[10] = endpoint: mean survival time, dose: 50.0 mg/kg/injection, schedule: Q01DX010 (ip), vehicle: saline
[11] = endpoint: mean survival time, dose: 6.25 mg/kg/injection, schedule: Q01DX010 (ip), vehicle: saline
[12] = endpoint: mean survival time, dose: 100.0 mg/kg/injection, schedule: Q01DX010 (ip), vehicle: saline
[13] = endpoint: mean survival time, dose: 200.0 mg/kg/injection, schedule: Q01DX010 (ip), vehicle: saline
[14] = endpoint: mean survival time, dose: 400.0 mg/kg/injection, schedule: Q01DX010 (ip), vehicle: saline
[15] = endpoint: mean survival time, dose: 40.0 mg/kg/injection, schedule: Q01DX010 (ip), vehicle: saline
[16] = endpoint: mean survival time, dose: 80.0 mg/kg/injection, schedule: Q01DX010 (ip), vehicle: saline
[17] = endpoint: mean survival time, dose: 125.0 mg/kg/injection, schedule: Q01DX010 (ip), vehicle: saline

In the case of `CC[C@]12C=CCN3CC[C@@]4(c5ccc(OC)cc5N(C)[C@H]4[C@@](O)(C(=O)OC)[C@@H]1OC(C)=O)[C@@H]32`, the T/C [1] is reported as 93 % of control, the T/C [2] is reported as 93 % of control and the T/C [3] is reported as 96 % of control. The T/C [4] was 86 % of control.

In the case of `NC(N)=NCCCC(N)C(=O)NCCCCCCNCCCCCCNC(=O)C(N)CCCN=C(N)N` (stereo unspecified), the T/C [5] is reported as 107 % of control, the T/C [6] is reported as 96 % of control and the T/C [7] is reported as 100 % of control.

`O=C(NCCCCC(NC(=O)OCc1ccccc1)C(=O)NCCCCCCNCCCCCCNC(=O)C(CCCCNC(=O)OCc1ccccc1)NC(=O)OCc1ccccc1)OCc1ccccc1` (stereo unspecified) was tested, and the T/C [8] was 107 % of control, the T/C [9] was 114 % of control and the T/C [10] was 114 % of control.

With `O=C(NCCCCC(NC(=O)c1ccccc1)C(=O)NCCCCCCCCCCNC(=O)C(CCCCNC(=O)c1ccccc1)NC(=O)c1ccccc1)c1ccccc1` (stereo unspecified) the T/C [11] was 103 % of control, the T/C [8] was 103 % of control and the T/C [9] was 100 % of control. For the same molecule, the T/C [10] was 96 % of control.

`CC(=O)NCCCCCCCCCCNC(C)=O` was tested, and the T/C [10] was 100 % of control, the T/C [12] was 100 % of control and the T/C [13] was 92 % of control. The T/C [14] was 96 % of control.

In the case of `COc1ccc(C(=O)C[C@H]2CCC[C@@H](CC(=O)c3ccc(OC)cc3)N2C)cc1`, the T/C [6] is reported as 107 % of control, the T/C [7] is reported as 100 % of control and the T/C [15] is reported as 100 % of control. The T/C [16] was 107 % of control.

With `O=C(NCCCCC(NC(=O)OCc1ccccc1)C(=O)NCCCNCCCCNCCCNC(=O)C(CCCCNC(=O)OCc1ccccc1)NC(=O)OCc1ccccc1)OCc1ccccc1` (stereo unspecified) the T/C (endpoint: mean survival time, dose: 2.5 mg/kg/injection, schedule: Q01DX010 (ip), vehicle: saline) was 100 % of control, the T/C [5] was 100 % of control and the T/C [6] was 100 % of control.

With `CC(=O)c1ccc[nH]1` the T/C (endpoint: mean survival time, dose: 62.5 mg/kg/injection, schedule: Q01DX010 (ip), vehicle: saline) was 100 % of control and the T/C [17] was 96 % of control.

In the case of `OCCOCCN1CCN(CCCN2c3ccccc3Sc3ccc(C(F)(F)F)cc32)CC1`, the T/C [5] is reported as 100 % of control, the T/C [6] is reported as 111 % of control and the T/C [7] is reported as 123 % of control. For the same molecule, the T/C [15] was 119 % of control.

For `COc1cc(C(=O)CC2CCCCN2)ccc1O` (stereo unspecified), the T/C [6] was 100 % of control, the T/C [7] was 96 % of control and the T/C [15] was 96 % of control. For the same molecule, the T/C [16] was 93 % of control.

For `O=C1C(=O)N(CN2CCOCC2)c2ccccc21`, the T/C [10] was 100 % of control, the T/C [12] was 100 % of control and the T/C [13] was 96 % of control. The T/C [14] was 103 % of control.

`COC(=O)C1=COC(C)C2CN3CCc4c([nH]c5ccccc45)C3CC12` (stereo unspecified) was tested, and the T/C [7] was 96 % of control, the T/C [15] was 93 % of control and the T/C [16] was 96 % of control.

`C[C@@H]1CCC([C@@H](C)[C@H]2CC[C@H]3[C@@H]4CC[C@H]5C[C@@H](O)CC[C@]5(C)[C@H]4CC[C@]23C)=NC1` was tested, and the T/C [8] was 107 % of control, the T/C [9] was 103 % of control and the T/C [10] was 100 % of control. For the same molecule, the T/C [12] was 100 % of control.

With `O=c1ccc2ccccc2o1` the T/C [10] was 107 % of control, the T/C [12] was 107 % of control and the T/C [13] was 107 % of control.

`CC1CCC(NC(=O)N(CCCl)N=O)CC1` (stereo unspecified) was tested, and the T/C (endpoint: median survival time, dose: 1.0 mg/kg/injection, schedule: Q01DX005 (ip), vehicle: other) was 111 % of control, the T/C (endpoint: median survival time, dose: 4.0 mg/kg/injection, schedule: Q01DX005 (ip), vehicle: other) was 255 % of control and the T/C (endpoint: median survival time, dose: 8.0 mg/kg/injection, schedule: Q01DX005 (ip), vehicle: other) was 255 % of control. For the same molecule, the T/C (endpoint: median survival time, dose: 16.0 mg/kg/injection, schedule: Q01DX005 (ip), vehicle: other) was 115 % of control.

`C/C=C1/CN[C@H]2Cc3c([nH]c4ccccc34)[C@@H](O)C[C@@H]1C2C(=O)OC` (stereo partly specified) was tested, and the T/C [1] was 93 % of control, the T/C [2] was 93 % of control and the T/C [3] was 96 % of control. For the same molecule, the T/C [4] was 93 % of control.

In the case of `COC1=C(N)C(=O)c2nc(-c3nc(C(=O)O)c(C)c(-c4ccc(OC)c(OC)c4O)c3N)ccc2C1=O`, the T/C (endpoint: mean survival time, dose: 0.06 mg/kg/injection, schedule: Q01DX010 (ip), vehicle: saline) is reported as 117 % of control, the T/C (endpoint: mean survival time, dose: 0.09 mg/kg/injection, schedule: Q01DX010 (ip), vehicle: saline) is reported as 110 % of control and the T/C (endpoint: mean survival time, dose: 0.13 mg/kg/injection, schedule: Q01DX010 (ip), vehicle: saline) is reported as 103 % of control.

For `Cc1nc(N)nc(N)c1-c1ccc(Cl)c(Cl)c1`, the T/C (endpoint: median survival time, dose: 0.75 mg/kg/injection, schedule: Q01DX009 (ip), vehicle: Klucel (hydroxypropylcellulose) (HPC)) was 102 % of control, the T/C (endpoint: median survival time, dose: 1.5 mg/kg/injection, schedule: Q01DX009 (ip), vehicle: Klucel (hydroxypropylcellulose) (HPC)) was 119 % of control and the T/C (endpoint: median survival time, dose: 3.0 mg/kg/injection, schedule: Q01DX009 (ip), vehicle: Klucel (hydroxypropylcellulose) (HPC)) was 107 % of control.

With `c1ccc(CCSc2ncnc3nc[nH]c23)cc1` the T/C [17] was 100 % of control and the T/C (endpoint: mean survival time, dose: 500.0 mg/kg/injection, schedule: Q01DX010 (ip), vehicle: saline) was 103 % of control.

`CC1CCCCN1` (stereo unspecified) was tested, and the T/C [11] was 103 % of control, the T/C [8] was 103 % of control and the T/C [9] was 103 % of control. For the same molecule, the T/C [10] was 96 % of control.

With `COc1cc2c3c(c4ccc(O)cc4c2cc1OC)[C@@H](O)[C@@H]1CCCN1C3` the T/C (endpoint: mean survival time, dose: 2.5 mg/kg/injection, schedule: Q01DX009 (ip), vehicle: water) was 98 % of control, the T/C (endpoint: mean survival time, dose: 5.0 mg/kg/injection, schedule: Q01DX009 (ip), vehicle: water) was 113 % of control and the T/C (endpoint: mean survival time, dose: 15.0 mg/kg/injection, schedule: Q01DX009 (ip), vehicle: water) was 110 % of control. The T/C (endpoint: mean survival time, dose: 20.0 mg/kg/injection, schedule: Q01DX009 (ip), vehicle: water) was 163 % of control, the T/C (endpoint: mean survival time, dose: 20.0 mg/kg/injection, schedule: Q01DX010 (ip), vehicle: water) was 113 % of control and the T/C (endpoint: mean survival time, dose: 30.0 mg/kg/injection, schedule: Q01DX010 (ip), vehicle: water) was 86 % of control.

With `CC(=O)OC(C)(C)/C=C/C(=O)[C@](C)(O)[C@H]1[C@H](O)C[C@@]2(C)[C@@H]3CC=C4[C@@H](CC[C@H](O)C4(C)C)[C@]3(CO)C(=O)C[C@]12C` the T/C (endpoint: mean survival time, dose: 0.16 mg/kg/injection, schedule: Q01DX010 (ip), vehicle: saline) was 103 % of control, the T/C (endpoint: mean survival time, dose: 0.25 mg/kg/injection, schedule: Q01DX010 (ip), vehicle: saline) was 100 % of control and the T/C (endpoint: mean survival time, dose: 0.38 mg/kg/injection, schedule: Q01DX010 (ip), vehicle: saline) was 103 % of control. For the same molecule, the T/C (endpoint: mean survival time, dose: 0.57 mg/kg/injection, schedule: Q01DX010 (ip), vehicle: saline) was 103 % of control.

For `C/C=C1\CNC2Cc3c([nH]c4ccccc34)C(=O)CC1C2C(=O)OC` (stereo unspecified), the T/C [8] was 93 % of control, the T/C [9] was 103 % of control and the T/C [10] was 96 % of control. The T/C [12] was 93 % of control.

With `CS(=O)(=O)OCCC(=O)N1CCN(C(=O)CCOS(C)(=O)=O)CC1` the T/C [9] was 160 % of control, the T/C [10] was 150 % of control and the T/C [12] was 270 % of control.

Reference: PubChem BioAssay AID316 (DTP/NCI, 2004)
